pIC50: −log10 of the molar value. Read-outs that look alike come from different tables or passages of the source.
Legend:
Assay type in all cases: biochemical
CDK6/CCND1 = CDK6/CCND1 (Homo sapiens, UniProt Q00534); experiment: CDK6 homogeneous time-resolved fluorescence (HTRF) kinase assay; conditions: CDK6/CCND
Description: (§1) A CDK homogeneous time-resolved fluorescence (HTRF) assay was used to assess the potency of the compounds described herein.
(§2) To an untreated 384-well microtiter plate (ProxiPlate) was added 100 nL 100×test compound in DMSO and 5 μL 2×CDK enzyme in assay buffer (50 mM HEPES, 1 mM EGTA, 10 mM MgCl2, 0.01% Tween 20, 2 mM DTT). The plate was centrifuged at 800 RPM for 1 min then incubated for 20 min at 23 °C. 2.5 μL per well of 4×ATP and 2.5 μL 4×ULight™-eIF4E-binding protein 1 (Thr37/46) Peptide substrate were added to all wells. After addition, the plates were centrifuged at 800 RPM for 1 min. The plates were incubated at 23 °C for 60 min. 5 μL per well 4×EDTA solution were added to each well to stop the reaction. 5 μL 4×LANCE Ultra Europium-anti-phospho-eIF4E-binding protein 1 (Thr37/46) antibody were added to each well and the plate was centrifuged for 1 min at 800 RPM. The plate was incubated for 60 min at 23 °C. Fluorescence was read at 340 nm excitation and 665 nm emission on an EnVision 2105 fluorescence reader. The final concentrations of reagents in the activity assay were 1 nM CDK6/CCND1, 1 mM ATP, 50 nM ULight™-eIF4E-binding protein 1 (Thr37/46) Peptide substrate, 1% DMSO, 10 mM EDTA, and 2 nM LANCE Ultra Europium-anti-phospho-eIF4E-binding protein 1 (Thr37/46).
(§3) Dose-response titrations were conducted by using an 11-point, half-logarithmic serial dilution scheme typically starting at 10 μM. Signals were reported as fluorescence units at 665 nm or the ratio of fluorescence units at 665 nm/fluorescence units at 615 nm. Signals are referred to below as “Lance signals”.
(§4) Using this assay, the IC50 values of example compounds were determined. Table 3 illustrates the IC50 for various Example compounds of Formula IA. Table 4 illustrates the IC50 for various other Example compounds of Formula I. ND=not determined.

CDK2/CCNE1 = CDK2/CCNE1 (Homo sapiens, UniProt P24941); experiment: CDK2 homogeneous time-resolved fluorescence (HTRF) kinase assay; conditions: CDK2/CCNE
Method in brief: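 TR-FRET read-out (665 nm, or 665/615 ratio) of Eu-antibody detection of phospho-4E-BP1 (Thr37/46) ULight peptide. Enzyme 3 nM, ATP 1 mM, peptide 50 nM, 1% DMSO; 60 min reaction at 23 °C after 20 min compound preincubation. IC50 from 11-point half-log titrations, top typically 10 μM.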

CDK4/CCND3 = CDK4/CCND3 (Homo sapiens, UniProt P11802); experiment: CDK4 homogeneous time-resolved fluorescence (HTRF) kinase assay; conditions: CDK4/CCND
Description: as §1
as §2, with “were 1.5” for “were 1”, “nM CDK4/CCND3,” for “nM CDK6/CCND1,”
as §3, §4

CDK1/CCNB1 = CDK1/CCNB1 (Homo sapiens, UniProt P06493); experiment: CDK1 homogeneous time-resolved fluorescence (HTRF) kinase assay; conditions: CDK1/CCNB
Method in brief: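 High-ATP (1 mM) HTRF assay with 0.5 nM CDK1/cyclin B1 and 50 nM ULight-4E-BP1 (Thr37/46) substrate, 60 min at 23 °C after 20-min compound preincubation. IC50 values come from dose-response curves.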

[1] = >250 nM, 1 mM ATP, read-out: CDK6/CCND IC50, >250 nM
[2] = >250 nM, read-out: CDK4/CCND IC50, >250 nM
[3] = >250 nM, read-out: CDK1/CCNB IC50 >250 nM
[4] = 25-250 nM, 1 mM ATP, read-out: CDK6/CCND IC50, 25-250 nM
[5] = <25 nM, read-out: CDK2/CCNE IC50, <25 nM
[6] = 25-250 nM, read-out: CDK4/CCND IC50, 25-250 nM
[7] = x = IC50 >250 nM, read-out: CDK6/CCND IC50 (>250 nM column)
[8] = x = IC50 25-250 nM, read-out: CDK2/CCNE IC50 (25-250 nM)
[9] = x = IC50 >250 nM, read-out: CDK4/CCND IC50 (>250 nM column)
[10] = x = IC50 >250 nM, read-out: CDK1/CCNB IC50 (>250 nM column)
[11] = 25-250 nM marked x, read-out: CDK2/CCNE IC50 25-250 nM
[12] = >250 nM marked x, read-out: CDK1/CCNB IC50 >250 nM

Sequence of CDK6/CCND1 (Q00534 whole entry): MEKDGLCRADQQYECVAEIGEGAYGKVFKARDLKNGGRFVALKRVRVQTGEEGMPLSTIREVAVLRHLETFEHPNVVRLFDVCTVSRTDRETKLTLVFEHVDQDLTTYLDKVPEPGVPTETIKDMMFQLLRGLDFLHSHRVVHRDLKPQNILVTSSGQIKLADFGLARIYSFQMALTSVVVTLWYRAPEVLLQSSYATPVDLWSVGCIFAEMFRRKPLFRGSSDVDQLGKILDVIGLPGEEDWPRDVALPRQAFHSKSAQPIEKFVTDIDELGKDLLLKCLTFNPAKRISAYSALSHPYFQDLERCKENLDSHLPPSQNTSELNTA
Sequence of CDK6/CCND1 (P24385 whole entry partner): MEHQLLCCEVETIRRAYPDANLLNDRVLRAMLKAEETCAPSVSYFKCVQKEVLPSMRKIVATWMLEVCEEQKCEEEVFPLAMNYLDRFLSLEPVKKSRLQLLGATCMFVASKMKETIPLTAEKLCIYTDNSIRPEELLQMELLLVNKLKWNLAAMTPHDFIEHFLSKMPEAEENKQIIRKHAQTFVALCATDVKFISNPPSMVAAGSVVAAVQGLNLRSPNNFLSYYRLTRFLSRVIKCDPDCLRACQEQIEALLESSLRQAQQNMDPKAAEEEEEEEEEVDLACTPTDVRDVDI
Sequence of CDK4/CCND3 (P11802 whole entry): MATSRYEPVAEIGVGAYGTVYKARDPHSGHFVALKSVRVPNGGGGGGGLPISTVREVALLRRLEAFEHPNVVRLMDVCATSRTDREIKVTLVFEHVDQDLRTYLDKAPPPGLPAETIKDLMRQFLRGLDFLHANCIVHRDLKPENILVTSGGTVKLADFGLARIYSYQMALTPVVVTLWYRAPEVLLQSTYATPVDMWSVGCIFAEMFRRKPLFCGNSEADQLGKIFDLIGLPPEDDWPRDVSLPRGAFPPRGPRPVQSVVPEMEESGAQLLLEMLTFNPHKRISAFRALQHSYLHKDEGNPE
Sequence of CDK4/CCND3 (P30281 whole entry partner): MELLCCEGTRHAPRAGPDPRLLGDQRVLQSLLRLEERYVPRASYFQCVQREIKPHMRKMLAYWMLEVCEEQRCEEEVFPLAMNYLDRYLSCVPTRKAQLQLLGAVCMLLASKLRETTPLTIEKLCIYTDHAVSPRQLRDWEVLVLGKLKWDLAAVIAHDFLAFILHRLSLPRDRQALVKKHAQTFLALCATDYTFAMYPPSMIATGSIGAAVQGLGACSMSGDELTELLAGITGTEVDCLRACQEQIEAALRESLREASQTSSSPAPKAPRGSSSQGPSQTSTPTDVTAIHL
Sequence of CDK1/CCNB1 (P06493 whole entry): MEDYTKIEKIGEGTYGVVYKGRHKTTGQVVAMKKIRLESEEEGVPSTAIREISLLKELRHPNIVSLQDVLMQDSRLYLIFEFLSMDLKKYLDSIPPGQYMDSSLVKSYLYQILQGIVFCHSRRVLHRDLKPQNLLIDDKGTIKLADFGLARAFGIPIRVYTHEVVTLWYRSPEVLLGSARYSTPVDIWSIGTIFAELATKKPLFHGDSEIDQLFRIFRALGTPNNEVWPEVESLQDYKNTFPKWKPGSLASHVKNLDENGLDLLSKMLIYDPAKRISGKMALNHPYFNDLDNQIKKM
Sequence of CDK1/CCNB1 (P14635 whole entry partner): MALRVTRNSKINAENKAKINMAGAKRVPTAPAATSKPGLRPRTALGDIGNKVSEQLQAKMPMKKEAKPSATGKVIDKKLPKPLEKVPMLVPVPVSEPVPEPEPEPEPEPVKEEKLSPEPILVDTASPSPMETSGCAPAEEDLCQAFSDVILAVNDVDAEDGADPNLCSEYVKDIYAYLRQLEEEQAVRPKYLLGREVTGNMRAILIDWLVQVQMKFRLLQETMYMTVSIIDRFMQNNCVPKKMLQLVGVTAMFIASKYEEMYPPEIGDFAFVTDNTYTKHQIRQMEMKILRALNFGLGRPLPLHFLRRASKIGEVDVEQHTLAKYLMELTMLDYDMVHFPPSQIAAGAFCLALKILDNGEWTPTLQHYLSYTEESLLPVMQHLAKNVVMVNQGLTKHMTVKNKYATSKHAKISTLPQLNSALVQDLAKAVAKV

## CS(=O)(=O)c1ccc(Nc2cc3c(C#Cc4cc(F)c(F)c(F)c4)nccc3cn2)cc1 [Ex 875, N-(4-(methylsulfonyl)phenyl)-5-((3,4,5-trifluorophenyl)ethynyl)-2,6-naphthyridin-3-amine]
CDK6/CCND1; [1]
  pIC50: < 6.60
CDK2/CCNE1; >250 nM, read-out: CDK2/CCNE IC50, >250 nM
  pIC50: < 6.60
CDK4/CCND3; [2]
  pIC50: < 6.60
CDK1/CCNB1; [3]
  pIC50: < 6.60

## Cc1c(-c2nccc3cnc(Nc4ccc(S(=O)(=O)Nc5ccc(N6CCOCC6)nn5)cc4)cc23)ccc2c1cnn2CC(C)(C)O [Ex 842, 4-((5-(1-(2-hydroxy-2-methylpropyl)-4-methyl-1H-indazol-5-yl)-2,6-naphthyridin-3-yl)amino)-N-(6-morpholinopyridazin-3-yl)benzenesulfonamide]
CDK6/CCND1; [4]
  pIC50: 6.60 to 7.60
CDK2/CCNE1; [5]
  pIC50: > 7.60
CDK4/CCND3; [6]
  pIC50: 6.60 to 7.60
CDK1/CCNB1; 25-250 nM, read-out: CDK1/CCNB IC50, 25-250 nM
  pIC50: 6.60 to 7.60

## CS(=O)(=O)c1ccc(Nc2cc3c(C#Cc4cnn(CC(F)(F)F)c4)nccc3cn2)cc1 [Ex 550, N-(4-(methylsulfonyl)phenyl)-5-((1-(2,2,2-trifluoroethyl)-1H-pyrazol-4-yl)ethynyl)-2,6-naphthyridin-3-amine]
CDK6/CCND1; [7]
  pIC50: < 6.60
CDK2/CCNE1; [8]
  pIC50: 6.60 to 7.60
CDK4/CCND3; [9]
  pIC50: < 6.60
CDK1/CCNB1; [10]
  pIC50: < 6.60

## CC[C@@H](C)NS(=O)(=O)c1ccc(Nc2cc3c(-c4ccc5c(cnn5CC(C)(C)O)c4C)nccc3cn2)cc1 [Example 721, (R)-N-(sec-butyl)-4-((5-(1-(2-hydroxy-2-methylpropyl)-4-methyl-1H-indazol-5-yl)-2,6-naphthyridin-3-yl)amino)benzenesulfonamide]
CDK6/CCND1; [1]
  pIC50: < 6.60
CDK2/CCNE1; [5]
  pIC50: > 7.60
CDK4/CCND3; [2]
  pIC50: < 6.60
CDK1/CCNB1; [3]
  pIC50: < 6.60

## Cc1c(-c2nccc3cnc(Nc4ccc(S(=O)(=O)NC5CCCNC5)cc4)cc23)ccc2c1cnn2CC(C)(C)O (racemic) [Ex 792, 4-((5-(1-(2-hydroxy-2-methylpropyl)-4-methyl-1H-indazol-5-yl)-2,6-naphthyridin-3-yl)amino)-N-(piperidin-3-yl)benzenesulfonamide]
CDK6/CCND1; [4]
  pIC50: 6.60 to 7.60
CDK2/CCNE1; [5]
  pIC50: > 7.60
CDK4/CCND3; [6]
  pIC50: 6.60 to 7.60
CDK1/CCNB1; [3]
  pIC50: < 6.60

## Cc1c(-c2nccc3cnc(Nc4ccc(S(=O)(=O)Nc5ncccn5)cc4)cc23)ccc2c1cnn2CC(O)(C(F)(F)F)C(F)(F)F [Ex 727, 4-((5-(4-methyl-1-(3,3,3-trifluoro-2-hydroxy-2-(trifluoromethyl)propyl)-1H-indazol-5-yl)-2,6-naphthyridin-3-yl)amino)-N-(pyrimidin-2-yl)benzenesulfonamide]
CDK6/CCND1; [1]
  pIC50: < 6.60
CDK2/CCNE1; [5]
  pIC50: > 7.60
CDK4/CCND3; [2]
  pIC50: < 6.60
CDK1/CCNB1; [3]
  pIC50: < 6.60

## C=CS(=O)(=O)c1ccc(Nc2cc3c(-c4ccccc4OC(F)(F)F)nccc3cn2)cc1 [Ex 141, 5-(2-(trifluoromethoxy)phenyl)-N-(4-(vinylsulfonyl)phenyl)-2,6-naphthyridin-3-amine]
CDK6/CCND1; >250 nM marked x, read-out: CDK6/CCND IC50 >250 nM
  pIC50: < 6.60
CDK2/CCNE1; [11]
  pIC50: 6.60 to 7.60
CDK4/CCND3; >250 nM marked x, read-out: CDK4/CCND IC50 >250 nM
  pIC50: < 6.60
CDK1/CCNB1; [12]
  pIC50: < 6.60

## Cc1ncc(S(=O)(=O)Nc2ccc(Nc3cc4c(-c5ccc6c(cnn6CC(C)(C)O)c5C)nccc4cn3)cc2)s1 [Ex 783, N-(4-((5-(1-(2-hydroxy-2-methylpropyl)-4-methyl-1H-indazol-5-yl)-2,6-naphthyridin-3-yl)amino)phenyl)-2-methylthiazole-5-sulfonamide]
CDK6/CCND1; [1]
  pIC50: < 6.60
CDK2/CCNE1; [5]
  pIC50: > 7.60
CDK4/CCND3; [2]
  pIC50: < 6.60
CDK1/CCNB1; [3]
  pIC50: < 6.60

## CS(=O)(=O)c1ccc(Nc2cc3c(C#Cc4ccc(F)c(O)c4)nccc3cn2)cc1 [Ex 560, 2-fluoro-5-((7-((4-(methylsulfonyl)phenyl)amino)-2,6-naphthyridin-1-yl)ethynyl)phenol]
CDK6/CCND1; [7]
  pIC50: < 6.60
CDK2/CCNE1; [8]
  pIC50: 6.60 to 7.60
CDK4/CCND3; [9]
  pIC50: < 6.60
CDK1/CCNB1; [10]
  pIC50: < 6.60

## CS(=O)(=O)c1ccc(Nc2cc3c(C#Cc4cc(N)ncc4F)nccc3cn2)cc1 [Ex 557, 5-((2-amino-5-fluoropyridin-4-yl)ethynyl)-N-(4-(methylsulfonyl)phenyl)-2,6-naphthyridin-3-amine]
CDK6/CCND1; [7]
  pIC50: < 6.60
CDK2/CCNE1; x = IC50 <25 nM, read-out: CDK2/CCNE IC50 (<25 nM)
  pIC50: > 7.60
CDK4/CCND3; [9]
  pIC50: < 6.60
CDK1/CCNB1; [10]
  pIC50: < 6.60

## Cc1c(-c2nccc3cnc(NC4CCCN(S(C)(=O)=O)C4)cc23)ccc2c1cnn2CC(C)(C)O (racemic) [Ex 918, 2-methyl-1-(4-methyl-5-(7-((1-(methylsulfonyl)piperidin-3-yl)amino)-2,6-naphthyridin-1-yl)-1H-indazol-1-yl)propan-2-ol]
CDK6/CCND1; [1]
  pIC50: < 6.60
CDK2/CCNE1; 25-250 nM, read-out: CDK2/CCNE IC50, 25-250 nM
  pIC50: 6.60 to 7.60
CDK4/CCND3; [2]
  pIC50: < 6.60
CDK1/CCNB1; [3]
  pIC50: < 6.60

## Cc1c(-c2nccc3cnc(Nc4ccc(S(=O)(=O)NC5CCCN(C)C5)cc4)cc23)ccc2c1cnn2CC(C)(C)O (racemic) [Ex 761, 4-((5-(1-(2-hydroxy-2-methylpropyl)-4-methyl-1H-indazol-5-yl)-2,6-naphthyridin-3-yl)amino)-N-(1-methylpiperidin-3-yl)benzenesulfonamide]
CDK6/CCND1; [4]
  pIC50: 6.60 to 7.60
CDK2/CCNE1; [5]
  pIC50: > 7.60
CDK4/CCND3; [6]
  pIC50: 6.60 to 7.60
CDK1/CCNB1; [3]
  pIC50: < 6.60

## CS(=O)(=O)c1ccc(Nc2cc3c(-c4ccc5[nH]ncc5c4)nccc3cn2)cc1 [Ex 601, 5-(1H-indazol-5-yl)-N-(4-(methylsulfonyl)phenyl)-2,6-naphthyridin-3-amine]
CDK6/CCND1; [7]
  pIC50: < 6.60
CDK2/CCNE1; [8]
  pIC50: 6.60 to 7.60
CDK4/CCND3; [9]
  pIC50: < 6.60
CDK1/CCNB1; [10]
  pIC50: < 6.60

## CN(C)C1CCN(c2nccc3cnc(NC4CCN(S(C)(=O)=O)CC4)cc23)CC1 [Ex 49, 5-(4-(dimethylamino)piperidin-1-yl)-N-(1-(methylsulfonyl)piperidin-4-yl)-2,6-naphthyridin-3-amine]
CDK6/CCND1; 25-250 nM marked x, read-out: CDK6/CCND IC50 25-250 nM
  pIC50: 6.60 to 7.60
CDK2/CCNE1; [11]
  pIC50: 6.60 to 7.60
CDK4/CCND3; 25-250 nM marked x, read-out: CDK4/CCND IC50 25-250 nM
  pIC50: 6.60 to 7.60
CDK1/CCNB1; [12]
  pIC50: < 6.60
